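Exposure lasted 48 hours, with cells grown in 96-well plates and compounds tested at five concentrations. GI50 marks 50% less growth. TGI is the concentration that stops growth completely.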
Key:
Assay in all cases: NCI tumour cell line growth inhibition, 48 h
[1] = tested on: COLO 205 colon
[2] = tested on: DU-145 prostate
[3] = tested on: HOP-62 NSCLC
[4] = tested on: IGROV1 ovarian
[5] = tested on: KM12 colon
[6] = tested on: LOX IMVI melanoma
[7] = tested on: SNB-75 CNS
[8] = tested on: UACC-257 melanoma
[9] = tested on: UACC-62 melanoma
[10] = tested on: SK-MEL-5 melanoma

With `Cc1c(C)c(CC(=O)N2CC2)c(C)c(C)c1CC(=O)N1CC1` the TGI [1] was 29.5 µM, the TGI [2] was 15.8 µM and the TGI [3] was 44.2 µM. The TGI [4] was 43.2 µM, the TGI [5] was 40.3 µM and the TGI [6] was greater than 49 µM. The TGI [7] was 50.8 µM, the TGI [8] was 50 µM and the TGI [9] was 17.2 µM.

`O=S1CSSC1` was tested, and the TGI [1] was 32 µM, the TGI [3] was 98.6 µM and the TGI [4] was 54.9 µM. It also gave a TGI [5] of 55.8 µM, a TGI [6] of 20 µM and a TGI [7] of 92.6 µM. The TGI [8] was 36.4 µM and the TGI [9] was 25.8 µM.

`CN(C)C(=S)Nc1nnc(Nc2ccccc2)s1` was tested, and the TGI [1] was greater than 100 µM, the TGI [3] was greater than 100 µM and the TGI [4] was greater than 100 µM. It also gave a TGI [6] greater than 100 µM, a TGI [10] greater than 100 µM and a TGI [7] greater than 100 µM. For the same molecule, the TGI [8] was greater than 100 µM.

For `C=CCNC(=O)N(CCC)CCCC(NC(C)=O)C(=O)NCc1ccccc1` (centres undefined), the TGI [1] was greater than 100 µM, the TGI [3] was greater than 100 µM and the TGI [4] was greater than 100 µM. For the same molecule, the TGI [5] was greater than 100 µM, the TGI [6] was greater than 100 µM and the TGI [10] was greater than 100 µM. It also gave a TGI [7] greater than 100 µM, a TGI [8] greater than 100 µM and a TGI [9] greater than 100 µM.

In the case of `CCCCCCCCCCCC1CC(=O)NCCCN(C)CCCCN(C)CCCN1C` (centres undefined), the TGI [1] was 3.03 µM, the TGI [3] was 3.04 µM and the TGI [4] was 3.22 µM. It also gave a TGI [5] of 2.96 µM, a TGI [6] of 2.84 µM and a TGI [10] of 3.43 µM. For the same molecule, the TGI [7] was 2.99 µM, the TGI [8] was 3.06 µM and the TGI [9] was 3.09 µM.

`O=C1c2ccccc2-c2c1c1ccccc1c(=O)n2CCNCCn1c2c(c3ccccc3c1=O)C(=O)c1ccccc1-2` gave a GI50 [1] of 2.2 µM, a TGI [1] greater than 25 µM and a GI50 [2] greater than 25 µM. It also gave a TGI [2] greater than 25 µM, a GI50 [3] greater than 25 µM and a TGI [3] greater than 25 µM. The GI50 [4] was greater than 25 µM, the TGI [4] was greater than 25 µM and the GI50 [5] was greater than 25 µM. It also gave a TGI [5] greater than 25 µM, a GI50 [6] greater than 25 µM and a TGI [6] greater than 25 µM. For the same molecule, the GI50 [10] was greater than 25 µM, the TGI [10] was greater than 25 µM and the GI50 [8] was greater than 25 µM. For the same molecule, the TGI [8] was greater than 25 µM, the GI50 [9] was greater than 25 µM and the TGI [9] was greater than 25 µM.

Work on `CC1=NN(C(=O)c2ccncc2)C(=O)C1N=Nc1ccc(F)cc1` (centres undefined) yielded a TGI [1] greater than 100 µM, a TGI [4] greater than 100 µM and a TGI [6] greater than 100 µM. The TGI [10] was greater than 100 µM, the TGI [7] was 66.8 µM and the TGI [8] was greater than 100 µM. It also gave a TGI [9] greater than 100 µM.

In the case of `COc1ccc2c(NCCCCCCNc3c4ccccc4nc4cc(OC)ccc34)c3ccccc3nc2c1`, the TGI [1] was 0.189 µM, the TGI [2] was 1.47 µM and the TGI [3] was 0.946 µM. For the same molecule, the TGI [4] was 0.339 µM, the TGI [5] was 2.03 µM and the TGI [10] was 5.76 µM. For the same molecule, the TGI [7] was 1.74 µM, the TGI [8] was 4.12 µM and the TGI [9] was 1.59 µM.

`CCCCCCCCCCCCCC[n+]1cccc(C(N)=O)c1` gave a GI50 [1] of 1.29 µM, a TGI [1] of 2.72 µM and a GI50 [2] of 3.3 µM. It also gave a TGI [2] of 11.6 µM, a GI50 [3] of 1.35 µM and a TGI [3] of 3.41 µM. For the same molecule, the GI50 [4] was 0.197 µM, the TGI [4] was 0.681 µM and the GI50 [7] was 1.06 µM. For the same molecule, the TGI [7] was 2.57 µM, the GI50 [8] was 2.34 µM and the TGI [8] was 8.46 µM. It also gave a GI50 [9] of 1.15 µM and a TGI [9] of 3.48 µM.

Molecule `COc1cc(CNc2nc3ccc(C(F)(F)F)cc3nc2-c2ccccc2)cc(OC)c1OC` has a TGI [1] greater than 100 µM, a TGI [3] greater than 100 µM and a TGI [4] greater than 100 µM. It also gave a TGI [5] greater than 100 µM, a TGI [6] greater than 100 µM and a TGI [10] of 87 µM. For the same molecule, the TGI [7] was 61.7 µM, the TGI [8] was greater than 100 µM and the TGI [9] was greater than 100 µM.
